Test results taken from the OligoGym collection.
HELM strings list units from the 5' end as sugar, base in round brackets, then linkage (d deoxyribose, r ribose, m 2'-O-methyl, p phosphodiester). Strings are as the collection lists them; they lack the last nucleoside at the 3' end of the tested compound. [moe] = 2'-O-(2-methoxyethyl) (MOE); [sp] = phosphorothioate linkage; [m5C] = 5-methylcytosine

Molecular target: APP
Test: mouse, dose not given
Details: ASO

Row | Substance | 3 h FOB score [score 0-7]
1 | RNA1{[moe](G)[sp].[moe](T)p.[moe](A)p.[moe]([m5C])p.[moe](T)[sp].d([m5C])[sp].d(A)[sp].d(T)[sp].d(T)[sp].d(T)[sp].d(T)[sp].d(T)[sp].d(G)[sp].d(T)[sp].d(T)[sp].[moe]([m5C])p.[moe](T)p.[moe](T)[sp].[moe](A)}$$$$ (last 3' nucleoside missing) | 0.67
2 | RNA1{[moe](G)[sp].[moe](T)p.[moe](G)p.[moe](A)p.[moe](T)[sp].d(T)[sp].d(T)[sp].d([m5C])[sp].d(A)[sp].d([m5C])[sp].d(T)[sp].d(A)[sp].d(A)[sp].d([m5C])[sp].d([m5C])[sp].[moe](G)p.[moe](G)p.[moe]([m5C])[sp].[moe](A)}$$$$ (last 3' nucleoside missing) | 2
3 | RNA1{[moe](G)[sp].[moe](T)p.[moe](G)p.[moe](A)p.[moe]([m5C])[sp].d(T)[sp].d(T)[sp].d(A)[sp].d(T)[sp].d(A)[sp].d([m5C])[sp].d(T)[sp].d([m5C])[sp].d(A)[sp].d(A)[sp].[moe](T)p.[moe](G)p.[moe](A)[sp].[moe]([m5C])}$$$$ (last 3' nucleoside missing) | 0
4 | RNA1{[moe](G)[sp].[moe](T)p.[moe](G)p.[moe](T)p.[moe]([m5C])[sp].d(A)[sp].d(T)[sp].d(A)[sp].d(A)[sp].d([m5C])[sp].d(A)[sp].d(T)[sp].d(T)[sp].d(T)[sp].d(A)[sp].[moe]([m5C])p.[moe](T)p.[moe]([m5C])[sp].[moe](A)}$$$$ (last 3' nucleoside missing) | 0
5 | RNA1{[moe](G)[sp].[moe](T)p.[moe](G)p.[moe]([m5C])p.[moe](T)[sp].d(T)[sp].d(A)[sp].d(T)[sp].d(A)[sp].d(A)[sp].d([m5C])[sp].d(T)[sp].d([m5C])[sp].d(T)[sp].d([m5C])[sp].[moe](A)p.[moe](T)p.[moe](A)[sp].[moe]([m5C])}$$$$ (last 3' nucleoside missing) | 1
6 | RNA1{[moe](G)[sp].[moe](T)p.[moe](T)p.[moe](G)p.[moe](A)[sp].d(A)[sp].d(T)[sp].d(T)[sp].d(T)[sp].d([m5C])[sp].d(T)[sp].d(T)[sp].d(A)[sp].d([m5C])[sp].d(A)[sp].[moe]([m5C])p.[moe](T)p.[moe](T)[sp].[moe](T)}$$$$ (last 3' nucleoside missing) | 0
7 | RNA1{[moe](G)[sp].[moe](T)p.[moe](T)p.[moe](G)p.[moe](T)[sp].d(A)[sp].d(G)[sp].d(G)[sp].d(A)[sp].d(A)[sp].d([m5C])[sp].d(T)[sp].d([m5C])[sp].d(G)[sp].d(A)[sp].[moe](A)p.[moe]([m5C])p.[moe]([m5C])[sp].[moe](A)}$$$$ (last 3' nucleoside missing) | 1
8 | RNA1{[moe](G)[sp].[moe](T)p.[moe](T)p.[moe](T)p.[moe](A)[sp].d([m5C])[sp].d([m5C])[sp].d(T)[sp].d(T)[sp].d(T)[sp].d(A)[sp].d(A)[sp].d([m5C])[sp].d(A)[sp].d(T)[sp].[moe](T)p.[moe]([m5C])p.[moe]([m5C])[sp].[moe](T)}$$$$ (last 3' nucleoside missing) | 0
9 | RNA1{[moe](G)[sp].[moe](T)p.[moe](T)p.[moe](T)p.[moe](A)p.[moe]([m5C])[sp].d([m5C])[sp].d(T)[sp].d(T)[sp].d(T)[sp].d(A)[sp].d(A)[sp].d([m5C])[sp].d(A)[sp].d(T)[sp].d(T)[sp].[moe]([m5C])p.[moe]([m5C])[sp].[moe](T)}$$$$ (last 3' nucleoside missing) | 2.75
10 | RNA1{[moe](G)[sp].[moe](T)p.[moe](T)p.[moe](T)p.[moe]([m5C])[sp].d(A)[sp].d(G)[sp].d(T)[sp].d(A)[sp].d(T)[sp].d(A)[sp].d(T)[sp].d(T)[sp].d([m5C])[sp].d(T)[sp].[moe]([m5C])p.[moe](T)p.[moe](G)[sp].[moe]([m5C])}$$$$ (last 3' nucleoside missing) | 0
11 | RNA1{[moe](G)[sp].[moe](T)p.[moe](T)p.[moe](T)p.[moe]([m5C])[sp].d(G)[sp].d([m5C])[sp].d(A)[sp].d(A)[sp].d(A)[sp].d([m5C])[sp].d(A)[sp].d(T)[sp].d([m5C])[sp].d([m5C])[sp].[moe](A)p.[moe](T)p.[moe]([m5C])[sp].[moe]([m5C])}$$$$ (last 3' nucleoside missing) | 0.5
12 | RNA1{[moe](G)[sp].[moe](T)p.[moe](T)p.[moe]([m5C])p.[moe](A)[sp].d([m5C])[sp].d(A)[sp].d(G)[sp].d(T)[sp].d(T)[sp].d(T)[sp].d(A)[sp].d([m5C])[sp].d([m5C])[sp].d([m5C])[sp].[moe]([m5C])p.[moe](A)p.[moe](A)[sp].[moe](G)}$$$$ (last 3' nucleoside missing) | 3.25
13 | RNA1{[moe](G)[sp].[moe](T)p.[moe](T)p.[moe]([m5C])p.[moe](A)p.[moe]([m5C])[sp].d(A)[sp].d(G)[sp].d(T)[sp].d(T)[sp].d(T)[sp].d(A)[sp].d([m5C])[sp].d([m5C])[sp].d([m5C])[sp].d([m5C])[sp].[moe](A)p.[moe](A)[sp].[moe](G)}$$$$ (last 3' nucleoside missing) | 0
14 | RNA1{[moe](G)[sp].[moe](T)p.[moe](T)p.[moe]([m5C])p.[moe]([m5C])[sp].d(A)[sp].d(A)[sp].d(A)[sp].d(G)[sp].d(A)[sp].d(T)[sp].d(T)[sp].d([m5C])[sp].d([m5C])[sp].d(A)[sp].[moe]([m5C])p.[moe](T)p.[moe](T)[sp].[moe](T)}$$$$ (last 3' nucleoside missing) | 1.25
15 | RNA1{[moe](G)[sp].[moe](T)p.[moe]([m5C])p.[moe](A)p.[moe]([m5C])[sp].d(A)[sp].d(T)[sp].d(G)[sp].d(A)[sp].d(T)[sp].d(A)[sp].d(T)[sp].d(T)[sp].d(T)[sp].d([m5C])[sp].[moe](A)p.[moe](G)p.[moe](A)[sp].[moe](T)}$$$$ (last 3' nucleoside missing) | 1
16 | RNA1{[moe](G)[sp].[moe](T)p.[moe]([m5C])p.[moe]([m5C])p.[moe](A)[sp].d(A)[sp].d(A)[sp].d(A)[sp].d([m5C])[sp].d(A)[sp].d([m5C])[sp].d(A)[sp].d(G)[sp].d(T)[sp].d(A)[sp].[moe]([m5C])p.[moe](A)p.[moe](A)[sp].[moe]([m5C])}$$$$ (last 3' nucleoside missing) | 1.67
17 | RNA1{[moe](G)[sp].[moe](T)p.[moe]([m5C])p.[moe]([m5C])p.[moe](A)[sp].d(T)[sp].d(T)[sp].d(A)[sp].d([m5C])[sp].d(A)[sp].d(A)[sp].d(A)[sp].d([m5C])[sp].d(A)[sp].d(A)[sp].[moe](G)p.[moe](T)p.[moe](A)[sp].[moe](A)}$$$$ (last 3' nucleoside missing) | 1
18 | RNA1{[moe](G)[sp].[moe]([m5C])p.[moe](A)p.[moe](A)p.[moe](A)[sp].d(G)[sp].d(A)[sp].d(A)[sp].d([m5C])[sp].d(A)[sp].d([m5C])[sp].d([m5C])[sp].d(A)[sp].d(A)[sp].d(T)[sp].[moe](T)p.[moe](T)p.[moe](T)[sp].[moe](T)}$$$$ (last 3' nucleoside missing) | 3
19 | RNA1{[moe](G)[sp].[moe]([m5C])p.[moe](A)p.[moe](A)p.[moe](A)[sp].d([m5C])[sp].d([m5C])[sp].d(A)[sp].d([m5C])[sp].d(T)[sp].d(T)[sp].d([m5C])[sp].d(T)[sp].d(G)[sp].d(T)[sp].[moe](A)p.[moe](G)p.[moe]([m5C])[sp].[moe](T)}$$$$ (last 3' nucleoside missing) | 0
20 | RNA1{[moe](G)[sp].[moe]([m5C])p.[moe](A)p.[moe](A)p.[moe](G)[sp].d(A)[sp].d([m5C])[sp].d(T)[sp].d(T)[sp].d(T)[sp].d(T)[sp].d([m5C])[sp].d(T)[sp].d(T)[sp].d(T)[sp].[moe](G)p.[moe]([m5C])p.[moe](T)[sp].[moe]([m5C])}$$$$ (last 3' nucleoside missing) | 0
21 | RNA1{[moe](G)[sp].[moe]([m5C])p.[moe](A)p.[moe](A)p.[moe]([m5C])[sp].d(A)[sp].d(G)[sp].d(A)[sp].d(T)[sp].d([m5C])[sp].d(T)[sp].d([m5C])[sp].d(T)[sp].d(T)[sp].d(A)[sp].[moe](T)p.[moe](T)p.[moe]([m5C])[sp].[moe](T)}$$$$ (last 3' nucleoside missing) | 0
22 | RNA1{[moe](G)[sp].[moe]([m5C])p.[moe](A)p.[moe](G)p.[moe](A)[sp].d(A)[sp].d(T)[sp].d(A)[sp].d([m5C])[sp].d([m5C])[sp].d(A)[sp].d(A)[sp].d(G)[sp].d(T)[sp].d(T)[sp].[moe](A)p.[moe](G)p.[moe](T)[sp].[moe](A)}$$$$ (last 3' nucleoside missing) | 0.25
23 | RNA1{[moe](G)[sp].[moe]([m5C])p.[moe](A)p.[moe](G)p.[moe](A)[sp].d(A)[sp].d(T)[sp].d([m5C])[sp].d([m5C])[sp].d(A)[sp].d([m5C])[sp].d(A)[sp].d(T)[sp].d(T)[sp].d(G)[sp].[moe](T)p.[moe]([m5C])p.[moe](A)[sp].[moe]([m5C])}$$$$ (last 3' nucleoside missing) | 1.5
24 | RNA1{[moe](G)[sp].[moe]([m5C])p.[moe](A)p.[moe](G)p.[moe](A)[sp].d(T)[sp].d([m5C])[sp].d(A)[sp].d(T)[sp].d(A)[sp].d(T)[sp].d(A)[sp].d([m5C])[sp].d(T)[sp].d(A)[sp].[moe](T)p.[moe](A)p.[moe]([m5C])[sp].[moe](A)}$$$$ (last 3' nucleoside missing) | 0
25 | RNA1{[moe](G)[sp].[moe]([m5C])p.[moe](A)p.[moe](G)p.[moe](T)[sp].d([m5C])[sp].d(A)[sp].d(A)[sp].d(T)[sp].d([m5C])[sp].d(A)[sp].d(A)[sp].d([m5C])[sp].d(T)[sp].d([m5C])[sp].[moe]([m5C])p.[moe](A)p.[moe](A)[sp].[moe]([m5C])}$$$$ (last 3' nucleoside missing) | 0
26 | RNA1{[moe](G)[sp].[moe]([m5C])p.[moe](A)p.[moe](G)p.[moe]([m5C])[sp].d(A)[sp].d(G)[sp].d(G)[sp].d(T)[sp].d(T)[sp].d(T)[sp].d([m5C])[sp].d([m5C])[sp].d(A)[sp].d(T)[sp].[moe](A)p.[moe](A)p.[moe](A)[sp].[moe]([m5C])}$$$$ (last 3' nucleoside missing) | 0
